According to patent US20080125498A1, “TREATMENT OF NEURODEGENERATIVE DISEASES AND CONDITIONS USING PAR1 ANTAGONISTS” (priority 2001, published 2008):
Ends that are not written are not given here.

Columns and labels:
PAR1 [1] = assay: PI hydrolysis in hippocampal slices; format: cell-based, mouse; conditions: wild type hippocampus / hippocampal slices
From the text: PAR1 is a seven transmembrane G-protein coupled receptor that stimulates G-alpha-q to initiate phosphatidyl inositol (PI) hydrolysis. To ensure that PAR1 is functional in regions of the brain that are subject to ischemic damage in the mouse transient focal ischemia model, we tested the ability of several activators of PAR1 to initiate PI hydrolysis (Chung et al., 1997) in the hippocampus and striatum.
Since tPA activates plasminogen to form plasmin, we tested whether exogenously applied tPA could activate endogenous plasminogen in brain slices to form plasmin and activate PAR1.

cortical astrocytes = assay: Astrocyte proliferation by BrdU incorporation; format: cell-based, mouse; conditions: for number of BrdU-positive cells: astrocyte cultures from wild type mice, 3 or 30 micromolar, 24 hours
Method: Cortical astrocytes from wild type and PAR1−/− knockout mice were either untreated (control) or treated for 24 hours with a 3 or 30 micromolar concentration of the peptide TFLLR-NH2 (SEQ ID NO: 1), which selectively activates PAR1. Cells were pulse-labeled with BrdU for the final 2 hours of culture.

PAR1 [2] = assay: Free intracellular calcium in cultured astrocytes (Fluo-3 AM); format: cell-based, mouse
NMDA receptor [3] = assay: Whole cell patch recording of NMDA-evoked currents in hippocampal slice CA1 pyramidal neurons; format: cell-based, rat; conditions: for average peak potentiation by thrombin: 1.4 mM Mg2+, n=19
NR1 subunit [4] = assay: NMDA receptor subunit immunoblots of thrombin-treated brain membranes; format: biochemical, rat
Method: (§1) NMDA receptor subunit immunoblots. Human embryonic kidney (HEK) cells were maintained in DMEM supplemented with 0.5 mM glutamine, 1 mM pyruvate, penicillin, streptomycin, and 10% fetal bovine serum in a humidified environment with 5% CO2, and transfected with 1 microgram/ml of NR1 or 1:2 microgram/ml NR1:NR2 cDNA. Cells were washed in ice-cold HEPES buffered saline (HBS), scraped on ice, and membranes isolated by centrifugation at 12,000×g. […] Adult rat brain regions were dissected, frozen in liquid nitrogen, homogenized in ice-cold HEPES buffered saline (HBS), centrifuged, and stored at −20° C. Membranes were resuspended in HBS and treated with thrombin or buffer for 30 min at 37° C. Samples were centrifuged, and the membrane pellet resuspended in 2% sodium dodecylsulphate (SDS), 62.5 mM Tris, 10% glycerol, 5% beta-mercaptoethanol, 0.05% bromophenol blue (pH 6.8); some samples were treated with IOU DNase for 10 min at 37° C. SDS/polyacrylamide gel electrophoresis (SDS/PAGE) and protein blotting to Immobilon-P membranes was performed as described (Lau and Huganir, Differential tyrosine phosphorylation of N-methyl-D-aspartate receptor subunits. J Biol Chem 270: 20036-20041, 1995). Membranes were blocked for 30 min in 0.2 M Tris base, 1.37 M NaCl, pH 7.4, containing 5% nonfat dry milk, and incubated overnight at 4° C. in primary antibodies: NR1 mAb54.1 (gift from Dr. S. Heinemann, Salk Institute, La Jolla Calif.), NR1 alt-C-terminal (Upstate Biotechnology, Lake Placid, N.Y.), NR2A C-terminal (Chemicon, Temecula, Calif.), or NR2B C-terminal (Upstate Biotechnology). Membranes were washed 3×, and incubated with HRP-conjugated goat anti-mouse or goat anti-rabbit antibodies (1:10,000), washed 3×, and developed using enhanced chemiluminescence. The percent of receptor cleaved by thrombin was determined using densitometry.

NR1 subunit [5] = assay: as above; format: biochemical, rat; remark: listed apart in the source
NMDA receptor [6] = assay: Two electrode voltage clamp of recombinant NMDA receptors with or without PAR1 in Xenopus oocytes; format: cell-based, Xenopus laevis
Method: Expression and recording of NMDA and PAR1 receptor function in Xenopus laevis oocvtes. cRNA was synthesized from linearized template cDNA according to manufacturer specifications (Ambion, Austin, Tex.). Xenopus oocytes were removed from ovaries of female frogs anesthetized with 0.3% 3-aminobenzoic acid ethylester. Groups of 20-30 stage V-VI oocytes were incubated in 292 U/ml Worthington (Freehold, N.J.) Type IV collagenase for 2 hours with slow shaking. The oocytes were rinsed in Barth's solution, and stored at 17° C. in Barth's solution supplemented with 100 microgram/ml gentamycin and 40 microgram/ml streptomycin. Control oocytes were injected with 3 ng NR1 subunit and 7 ng NR2B subunit. Other oocytes were injected with the NMDA receptor subunits plus 3 ng PAR1 cRNA. Two electrode voltage clamp recordings were made 3-7 days post-injection. Oocytes were continually perfused with recording solution (in mM, 90 NaCl, 1 KCl, 10 HEPES, pH 7.4) and held under voltage clamp at −30 to −50 mV with an OC-725B amplifier (Warner Instruments, Hamden, Conn.). Recording solution was supplemented with 1.0 mM CaCl2 during initial impalement of the oocytes and subsequently 0.5 mM BaCl2 during recording to reduce the calcium-activated chloride current endogenous to oocytes. […] NMDA receptor currents were evoked by 20 micromolar glutamate/10 micromolar glycine perfused for 0.5-1 minute. […] Expression of PAR1 protein was verified by a thrombin or SFLLRN-stimulated rapidly desensitizing inward current at −30 mV that reflects the Ca^2+-activated Cl^− current endogenous to the oocyte. To test the ability of thrombin to modify NMDA receptor function in oocytes, recordings of receptor function were made both before and after a 15-60 min incubation in recording solution supplemented with thrombin in Eppendorf tubes at room temperature. […] Oocytes with responses less than 50 nA were not included in the analysis.

NR1 subunit [7] = target: T1, NR1 subunit (Rattus norvegicus, UniProt P35439); assay: Thrombin cleavage of recombinant NR1 subunits in HEK 293 cells (immunoblot); format: biochemical; conditions: 10-1000 U/ml thrombin
T1 construct: expressed in transfected cells; host or cells: HEK 293 cells, transient transfection; isolated membranes treated with thrombin
Method: as §1, with “Membranes were blocked for 30 min in 0.2 M Tris base, 1.37 M NaCl, pH 7.4, containing 5% nonfat dry milk, and incubated overnight at 4° C. in primary antibodies: NR1 mAb54.1 (gift from Dr. S. Heinemann, Salk Institute, La Jolla Calif.), NR1 alt-C-terminal (Upstate Biotechnology, Lake Placid, N.Y.), NR2A C-terminal (Chemicon, Temecula, Calif.), or NR2B C-terminal (Upstate Biotechnology). Membranes were washed 3×, and incubated with HRP-conjugated goat anti-mouse or goat anti-rabbit antibodies (1:10,000), washed 3×, and developed using enhanced chemiluminescence.” left out

NMDA receptor [8] = assay: Whole cell patch recording of NMDA-evoked currents in hippocampal CA1 pyramidal cells of wild-type and PAR1-/- mice; format: cell-based, mouse
PAR1 [9] = format: cell-based, rat
hippocampal slices = assay: Transmitted light measurements in hippocampal slices (extracellular volume fraction); format: cell-based, rat; conditions: 3-7 U/ml thrombin, 10-20 minutes
Method: Rat hippocampal slices were prepared as described above, and were bathed in a submerged chamber with 0.5 micromolar TTX, and 3-7 U/ml thrombin in 0.5 micromolar TTX applied for 10-20 minutes. The intensity of transmitted light (450-490 nm) through hippocampal slices was monitored as an indication of extracellular volume fraction (Andrew and MacVicar, Imaging cell volume changes and neuronal excitation in the hippocampal slice. Neuroscience 62: 371-383, 1994). Images were recorded using a Princeton Micromax CCD camera (Trenton, N.J.; 0.2 sec exposure every 20 to 40 sec) and analyzed using Axon Imaging Workbench 2.1 software (Foster City, Calif.). Intensity was expressed as I/Io where Io is the intensity of transmitted light prior to treatment. Solutions were made hyperosmotic by addition of 30 mM mannitol, which can produce a 10% expansion of the extracellular volume fraction (McBain et al. Regional variation of extracellular space in hippocampus. Science 249: 674-677, 1990). Hypoosmotic solutions were obtained by addition of 10% v/v water.

TFLLR-NH2 [specific PAR1 agonist peptide]
PI hydrolysis (PAR1 [1]): increased PI hydrolysis | number of BrdU-positive cells (cortical astrocytes): increases the number of BrdU-positive cells | number of BrdU-positive cells (cortical astrocytes; listed as TFLLR): can stimulate astrocyte proliferation | free intracellular calcium (PAR1 [2]; cultured astrocytes from PAR1-/- knockout mice): does not increase free intracellular calcium | free intracellular calcium (PAR1 [2]; cultured astrocytes from wild type mice): increases free intracellular calcium

bisindolylmaleimide [reference compound]
potentiation of NMDA receptor currents by thrombin in presence of BIS (NMDA receptor [3]; BIS 10 microM in ACSF, 30 nM (3 U/ml) thrombin, n=10): 1.20±0.13 fold | NMDA responses during preapplication of BIS (NMDA receptor [3]; BIS alone): unchanged

hirudin [reference compound]
potentiation by thrombin of NMDA responses in presence of hirudin (NMDA receptor [3]; 3 U/ml thrombin + 100 ATU hirudin, average potentiation 12-19 min post treatment, n=5): 0.96±0.23 fold | block of NR1 cleavage by 30 nM thrombin (NR1 subunit [4]; striatal membranes, 100 ATU hirudin): blocked cleavage

pertussis toxin
inhibition of PAR1-induced astrocyte proliferation (cortical astrocytes; 24-hour pre-treatment, counting of BrdU-positive cells): could be inhibited

thrombin
PI hydrolysis (PAR1 [1]): increased PI hydrolysis | peak potentiation of NMDA responses (NMDA receptor [3]; 30 nM (3 U/ml) thrombin, -70 mV, within 20 minutes, n=21): 2.07±0.27 fold | average peak potentiation by thrombin (NMDA receptor [3]; -40 mV): 1.48±0.11 fold | average peak potentiation by thrombin (NMDA receptor [3]; -70 mV): 2.10±0.29 fold | thrombin potentiation of the NMDA response (NMDA receptor [3]; cells excluded for low input resistance or increased series resistance, n=12): 1.8±0.2 fold | thrombin-induced potentiation (NMDA receptor [3]; cells held at 0 mV, briefly stepped to -70 mV, n=7): 2.7±0.7 fold | predicted cleavage of NR1 protein (NR1 subunit [5]; 15 minute treatment of slices at 23 C, 3 U/ml, extrapolated assuming linear time, Q10 2.5): 1% | NR1 cleavage product in CA1 region microdissected from slices (NR1 subunit [5]; 15 minutes of 3 U/ml thrombin application at 23 C): no NR1 cleavage product was observed | NR1 subunit cleaved (NR1 subunit [5]; hippocampal membranes, 30 nM thrombin (3 U/ml), 1 hour at 37 C): 20% | NR1 subunits cleaved (NR1 subunit [4]; 1-3 micromolar thrombin, all brain regions except striatum): 100% | molecular weight shift of NR2A or NR2B subunits (NR1 subunit [4]; brain membranes, 3-300 U/ml thrombin): did not induce any observable molecular weight shift | cleavage of NR1 subunits (NR1 subunit [4]; cerebellar, cortical and brainstem membranes, 300 nM thrombin (30 U/ml)): insensitive to cleavage | NR1 cleaved (NR1 subunit [4]; striatal membranes, 30 nM thrombin (3 U/ml)): 50% | maximal observed cleavage of NR1 (NR1 subunit [4]; striatum, 1-3 micromolar thrombin): 52% | potentiation of NR1-1a/NR2A receptors coexpressed with PAR1 (NMDA receptor [6]; 3 nM thrombin, n=6): 1.68±0.11 fold | potentiation of NR1-1a/NR2A receptors coexpressed with PAR1 (NMDA receptor [6]; 300 μM thrombin (so in the source), n=7): 1.37±0.08 fold | current response amplitude after incubation (NMDA receptor [6]; 300-1000 nM thrombin, 60 minutes, n=7, buffer controls 78±5%): 42±9% | ratio of NMDA receptor-mediated current after to before application (NMDA receptor [6]; NR1-1a/NR2B, oocytes without PAR1, n=9): 0.87±0.04 | PAR1 potentiation of NR1-1a(C798A)/NR2B receptors (NMDA receptor [6]; control oocytes lacking PAR1, n=5): 0.98±0.05 | cleavage of NR1 subunit (NMDA receptor [6]; low concentrations of thrombin (0.3-3 nM)): did not produce any cleavage | response amplitude of NR1/NR2A and NR1/NR2B receptors vs buffer (NMDA receptor [6]; oocytes lacking thrombin receptors, 3 U/ml, 15 minutes, 23 C): no significant difference | PAR1 potentiation of NR1-1a(C798A)/NR2B receptors (NMDA receptor [6]; oocytes with PAR1, n=7): 1.35±0.07 | potentiation of NR2A containing receptors (NMDA receptor [6]; presence of 10 micromolar EDTA, n=12): 2.01±0.17 fold | amplitude of NMDA receptor responses, NR1-1a with NR2c or NR2D (NMDA receptor [6]; thrombin activation of PAR1): unaffected | cleavage of recombinant NR1-1b and NR1-1b/NR2B receptors (NR1 subunit [7]): cleaved both homomeric NR1-1b receptors | NMDA receptor responses (NMDA receptor [8]; PAR1-/- C57B1/6 mice, thrombin application): did not significantly increase | potentiation of responses to pressure-applied NMDA plus glycine (NMDA receptor [8]; wild-type C57B1/6 mice, 3 U/ml thrombin): robust potentiation | Fluo-3 fluorescence in soma and dendrites (PAR1 [9]): robust increase | intensity of transmitted light I/Io (hippocampal slices; stratum pyramidale): 1.00±0.01 | intensity of transmitted light I/Io (hippocampal slices; stratum radiatum): 1.01±0.01
